Source: article PMC9775191, “A Subset Screen of the Compounds Australia Scaffold Library Identifies 7-Acylaminodibenzoxazepinones as Potent and Selective Hits for Anti-Giardia Drug Discovery” (Biomedicines, 2022)

test system: G. duodenalis BRIS/91/HEPU/1279; assay: Primary Giardia screen at 10 µM (live-cell imaging, automated counting); assay type: cell-based, Giardia duodenalis; conditions: 24 h
How it was run: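 Compounds were tested once each at 10 μM final (0.2% DMSO) in culture medium under 3% O2, 5% CO2 in N2. Growth was read at 24 and 48 h by live-cell imaging with automated counting, and inhibition expressed as percent growth versus 0.2% DMSO vehicle after media-only background subtraction.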

Structure (SMILES)	Average % Inhibition 24h [%]
O=C(NC1CCCCCC1)c1cc2cn(C3CC3)cc2s1 [SN00802023]	1.8

same assay, conditions: 24 h, first singlicate assay

Structure (SMILES)	% Inhibition n=1 24h [%]
O=C(NC1CCCCCC1)c1cc2cn(C3CC3)cc2s1 [SN00802023]	3.6

same assay, conditions: 24 h, re-assessment

Structure (SMILES)	% Inhibition n=2 24h [%]
O=C(NC1CCCCCC1)c1cc2cn(C3CC3)cc2s1 [SN00802023]	0.0

same assay, conditions: 48 h

Structure (SMILES)	Average % Inhibition 48h [%]
O=C(NC1CCCCCC1)c1cc2cn(C3CC3)cc2s1 [SN00802023]	46.9

same assay, conditions: 48 h, first singlicate assay

Structure (SMILES)	% Inhibition n=1 48h [%]
O=C(c1ccco1)N1CCC(OCc2nc(-c3ccncc3)no2)CC1 [SN00801147]	18.6
Cc1noc(COC2CCCN(C(=O)c3nn(C)c4ccccc34)C2)n1 (stereo not shown) [SN00801154]	0.0
COc1cccc(C(=O)N(CC2CCOC2)C2CC2)c1 (stereo not shown) [SN00801182]	0.0
CN(CC1CCOC1)C(=O)Cc1ccccc1 (stereo not shown) [SN00801209]	0.0
CN(C)[C@@H]1CN(C(=O)c2ccco2)CC[C@]1(O)c1ccccc1 [SN00801222]	3.1
CN(C)CC1CN(S(=O)(=O)c2ccccc2)CC12CCOCC2 (stereo not shown) [SN00801264]	0.0
CN(C)CC1CN(S(=O)(=O)C2CC2)CC12CCOCC2 (stereo not shown) [SN00801268]	16.1
CN(C)[C@@H]1CN(Cc2ccc3[nH]ccc3c2)CC[C@H]1CO [SN00801277]	6.2
CN1C(=O)CC[C@]2(CNC(=O)C3(c4ccccc4)CC3)CCC[C@@H]12 [SN00801306]	21.4
COCC1CN(C(=O)c2ccc(OC)cc2)CC12CCOCC2 (stereo not shown) [SN00801332]	24.3
CC1(c2nc(C3CC3)no2)CCCN(C(=O)CCC2CCCC2)C1 (stereo not shown) [SN00801392]	3.8
COc1ccc(C2CCC(=O)N2CCN2CCOCC2)cc1 (stereo not shown) [SN00801430]	34.6
CCC(=O)N1CCc2c(sc3ncnc(N(C)C4CCN(C)CC4)c23)C1 [SN00801485]	0.0
CC(C)S(=O)(=O)N1CCC(N(C)C2CCOCC2)CC1 [SN00801518]	0.0
CN1CCC(OC2CCN(C(=O)CC3CCCC3)CC2)CC1 [SN00801545]	26.4
CNC(=O)N1CCC(C2CCN(C(=O)c3ccncc3)CC2)C1 (stereo not shown) [SN00801593]	4.5
CCc1ccc(NC(=O)Cn2nc3n(c2=O)CCCC3)cc1 [SN00801641]	9.1
O=C(Cn1nc2n(c1=O)CCCC2)NCc1ccccc1Br [SN00801654]	6.0
O=C(c1cnccn1)N1CCCC1c1nc(-c2ccccc2)no1 (stereo not shown) [SN00801675]	0.0
COc1ccc(C2(C(=O)N3CCC(Cc4nc(-c5ccc(F)cc5)no4)CC3)CC2)cc1 [SN00801690]	0.0
CCc1ccc(C(=O)N2CCC(Cc3nc(-c4ccc(OC)cc4)no3)CC2)cc1 [SN00801692]	0.0
CC(C)(C)c1ccc(C(=O)N2CCC3(CC2)NC(c2ccccc2)=NO3)cc1 [SN00801741]	0.0
O=C1CC(c2noc(-c3ccc(F)cc3)n2)CN1c1ccc(F)cc1 (stereo not shown) [SN00801778]	9.0
COc1ccc(N2CC(c3noc(-c4ccc(C(C)(C)C)cc4)n3)CC2=O)cc1 (stereo not shown) [SN00801793]	0.0

Structure (SMILES)	% Inhibition n=1 48h [%]
O=C(Nc1ccc(N2CCN(C3CCCCC3)C2=O)nc1)c1ccc(Cl)s1 [SN00801852]	26.3
O=C(c1cn2ccnc(-c3ccccc3)c2n1)N1CCCCC1 [SN00801929]	30.6
Cc1scc2nc(C(N)=O)nc(N3CCCC3)c12 [SN00801956]	22.6
COCCn1c(C2CCN(S(=O)(=O)c3cccs3)C2)nc2cccnc21 (stereo not shown) [SN00802004]	5.3
O=C(NC1CCCCCC1)c1cc2cn(C3CC3)cc2s1 [SN00802023]	43.4
CC(C)n1cc2cc(C(=O)NCCCN3CCCc4ccccc43)sc2c1 [SN00802034]	3.6
c1cnc(-c2nnc(C3CCCNC3)[nH]2)cn1 (stereo not shown) [SN00802129]	2.3
CCC(=O)N1CC(C(=O)NCCN(C)C)C2(CCOCC2)C1 (stereo not shown) [SN00802145]	13.1
Cc1nc(C)c2c(n1)N(CCN(C)C1CCCCC1)C(=O)CC2 [SN00802202]	0.0
Cc1nc(-c2ccncc2)nc2c1CCC(=O)N2CCC1=CCCCC1 [SN00802205]	0.0
CCNC(=O)c1c(C)oc2c1CNCC2 [SN00802246]	10.3
CCC1(N2CCN(C)CC2)CCN(S(=O)(=O)c2ccccc2)C1 (stereo not shown) [SN00802274]	2.6
CCCCN1CCN(C(=O)c2cc3c(=O)n(CC(C)C)c4ccccc4n3n2)CC1 [SN00802291]	12.0
Cc1ccc(CNC(=O)N2CCCN(C3CCN(CC4CC4)C3=O)CC2)cc1 (stereo not shown) [SN00802402]	5.4
COCCN1CCC(N2CCCN(C(=O)NCCc3ccccc3)CC2)C1=O (stereo not shown) [SN00802413]	1.7
CCOc1ccccc1CNC(=O)c1nc(C(C)C)oc1C [SN00802425]	24.0
Cc1oc(C2CCC2)nc1C(=O)NC(C)c1ccccn1 (stereo not shown) [SN00802442]	17.0
COc1ccc(-c2ccnc3c(C(=O)NCc4ccc5c(c4)OCO5)cnn23)cc1OC [SN00802455]	16.8
CCN(CC)CCCC(C)NC(=O)c1cc(-c2ccco2)on1 (stereo not shown) [SN00802522]	3.7
COC(=O)C(C)n1cnc2c(nnn2Cc2ccc(C)cc2)c1=O (stereo not shown) [SN00802538]	3.2
COc1cccc(-c2noc(C3CCCCN3C(=O)Nc3ccc(Cl)cc3Cl)n2)c1 (stereo not shown) [SN00802548]	5.7
COC(=O)C(C)n1cnc2c(nnn2Cc2ccccc2F)c1=O (stereo not shown) [SN00802558]	11.4
Cc1ccccc1C(=O)N[C@@H]1CCCC[C@H]1NC(=O)C1CCCN(C(=O)c2ccc(Cl)cc2)C1 (stereo partly shown) [SN00802559]	3.9
O=C(Cn1cnc2c(nnn2Cc2ccc(Cl)cc2)c1=O)NC1CCCC1 [SN00802568]	16.4

Structure (SMILES)	% Inhibition n=1 48h [%]
CCCN(C)C(=O)Cn1c(=O)n(-c2ccc(F)cc2)c(=O)c2ccccc21 [SN00802614]	32.9
O=C(c1ccc(F)cc1)N1CCc2[nH]nc(C(=O)N3CCN(c4ccc(F)cc4)CC3)c2C1 [SN00802630]	0.9
CCn1nc(C(=O)NCc2ccccc2F)cc1-c1cc(C)sc1C [SN00802641]	9.7
Cc1ccccc1-n1nc(C(=O)N(C)Cc2ccco2)nc1CCc1ccccc1 [SN00802642]	5.4
CCOC(=O)CC(=O)Nc1ccc(-c2onc3c2CCc2cc(OC)ccc2-3)cc1 [SN00802675]	5.3
O=c1c2c(ncn2Cc2ccc(F)cc2)n(-c2ccccc2)c(=O)n1C1CCCC1 [SN00802718]	6.1
Cc1cccc2c1NC1(CCN(S(=O)(=O)c3ccc(C(C)(C)C)cc3)CC1)NC2=O [SN00802737]	13.3
COc1ccc(-n2nc3c(c2NC(=O)c2ccc([N+](=O)[O-])cc2)CS(=O)(=O)C3)cc1 [SN00802781]	12.4
CCn1nc(C(=O)NCCOc2ccccc2)cc1-c1cc(C)sc1C [SN00802783]	0.0
Cc1ccc(-n2nc3c(c2NC(=O)COc2ccccc2)CS(=O)(=O)C3)c(C)c1 [SN00802785]	16.6
CC(C)(C)c1cc2nc(-c3ccccc3)cc(C(=O)NC3CCCCNC3=O)n2n1 (stereo not shown) [SN00802787]	0.0
CCN(CC)C(=O)c1cc(-c2cccs2)nc2cc(C)c(C)cc12 [SN00802800]	16.9
COc1ccc(C2NC(=O)NC(C)=C2C(=O)c2ccccc2)cc1 (stereo not shown) [SN00802824]	12.9
CCOC(=O)c1csc(-n2nc(CC(C)C)cc2C(F)(F)F)n1 [SN00802831]	29.0
Cc1ccc(Cn2ccc3nc(N4CCCCC4)ncc3c2=O)cc1 [SN00802904]	15.1
CCn1cc(C(=O)Nc2ccccc2O)c(=O)c2cc(F)c(N3CCN(C(C)=O)CC3)cc21 [SN00802927]	0.0
CCOc1ccc(S(=O)(=O)N(C)Cc2c(C)nn(C)c2C)cc1 [SN00802962]	2.3
Cc1cc(C)cc(N2CCN(CCCNC(=O)c3nc(-c4ccncn4)no3)CC2)c1 [SN00802991]	0.0
Cc1sc2ncn(CCN(C)C)c(=O)c2c1C(=O)Nc1ccc(S(N)(=O)=O)nc1 [SN00803001]	26.5
COc1ccc(CNC(=O)N2CCC(c3ccn4ncc(C(=O)N5CCOCC5)c4c3)CC2)cc1 [SN00803088]	0.7
COc1ccc(CC(=O)NC2CCN(c3nc4c(s3)c(C)nn4-c3cccc(C)c3)CC2)cc1 [SN00803147]	1.5
Cc1nn(-c2ccc(F)cc2)c2nc(N3CCCN(C(=O)Cc4cccs4)CC3)sc12 [SN00803162]	27.0
Cc1ccc(-n2nc(C)c3sc(N4CCCN(C(=O)c5ccc6c(c5)OCO6)CC4)nc32)cc1 [SN00803168]	0.0

same assay, conditions: 48 h, re-assessment

Structure (SMILES)	% Inhibition n=2 48h [%]
O=C(NC1CCCCCC1)c1cc2cn(C3CC3)cc2s1 [SN00802023]	50.4
